Experimental data: PMC9697031, “Identification of Novel Diarylpyrimidines as Potent HIV-1 Non-Nucleoside Reverse Transcriptase Inhibitors by Exploring the Primer Grip Region” (Pharmaceuticals, 2022)
Like-named read-outs stand apart in the source and are kept apart here.

How the values were obtained:
[1] = tested on: HIV-1 K103N mutant strain; test: microbe, parasite or virus in culture; assay type: cell-based; details: for EC50: Human immunodeficiency virus 1, MT4, read-out: EC50 K103N; for Resistance Folds K103N: RF, EC50 (K103N)/EC50 (WT)
Procedure: (§1) Stock solutions (10 × final concentration) of test compounds were added in 25 μL volumes to two series of triplicate wells to allow simultaneous evaluation of their effects on mock- and HIV-infected cells at the beginning of each experiment.

[2] = Cytotoxicity in mock-infected MT-4 cells, MTT method; details: human
Procedure: as §1

[3] = tested on: HIV-1 E138K mutant strain; test: Anti-HIV-1 mutant strain E138K in MT-4 cells, MTT method; assay type: cell-based; details: Human immunodeficiency virus 1, MT4, read-out: EC50 E138K
Procedure: (§2) Evaluation of the anti-HIV activity and cytotoxicity of the target compounds was performed by utilizing the MTT method in MT-4 cells described previously [37]. Stock solutions (10 × final concentration) of test compounds were added in 25 μL volumes to two series of triplicate wells to allow simultaneous evaluation of their effects on mock- and HIV-infected cells at the beginning of each experiment. Serial five-fold dilutions of test compounds were prepared directly in flat-bottomed 96-well microtiter trays by adding 100 μL medium to the 25 μL stock solution and transferring 25 μL of this solution to another well that contained 100 μL medium using a Biomek 3000 robot (Beckman Instruments, Fullerton, CA). Each sample includes untreated control HIV- and mock-infected cell samples. WT HIV-1 strain (IIIB), HIV-1 drug-resistant strains including L100I, K103N, Y181C, Y188L, E138K, K103N/Y181C, F227L/V106A or HIV-2 strain (ROD) stock (50 μL) at 100–300 CCID50 (50% cell culture infectious dose) or culture medium was added to either the infected or mock-infected wells of the microtiter tray. Mock-infected cells were used to evaluate the effect of test compounds on uninfected cells to evaluate their cytotoxicity. Exponentially growing MT-4 cells were centrifuged for 5 min at 1000 rpm, and the supernatant was discarded. […] After infection five days, the viability of mock- and HIV-infected cells was examined spectrophotometrically by the MTT assay.

[4] = tested on: HIV-1 RES056 (K103N/Y181C) mutant strain; test: Anti-HIV-1 double mutant RES056 in MT-4 cells, MTT method; assay type: cell-based; details: Human immunodeficiency virus 1, MT4, read-out: EC50 RES056
Procedure: as §2

[5] = tested on: HIV-1 L100I mutant strain; test: Anti-HIV-1 mutant strain L100I in MT-4 cells, MTT method; assay type: cell-based; details: Human immunodeficiency virus 1, MT4, read-out: EC50 L100I
Procedure: as §2

[6] = tested on: HIV-1 Y181C mutant strain; test: Anti-HIV-1 mutant strain Y181C in MT-4 cells, MTT method; assay type: cell-based; details: Human immunodeficiency virus 1, MT4, read-out: EC50 Y181C
Procedure: as §2

[7] = tested on: HIV-1 Y188L mutant strain; test: Anti-HIV-1 mutant strain Y188L in MT-4 cells, MTT method; assay type: cell-based; details: Human immunodeficiency virus 1, MT4, read-out: EC50 Y188L
Procedure: as §2

[8] = tested on: HIV-1 F227L + V106A mutant strain; test: Anti-HIV-1 double mutant F227L + V106A in MT-4 cells, MTT method; assay type: cell-based; details: Human immunodeficiency virus 1, MT4, read-out: EC50 F227L + V106A
Procedure: as §2

WT HIV-1 strain (IIIB) = test: Anti-HIV-1 (IIIB, wild-type) activity in MT-4 cells, MTT method; assay type: cell-based
Procedure: as §1

HIV-2 strain (ROD) = test: Anti-HIV-2 (ROD) activity in MT-4 cells, MTT method; assay type: cell-based
Procedure: as §1

HIV-1 WT RT = biological target: T1, HIV-1 WT RT (Human immunodeficiency virus type 1 group M subtype B, UniProt P04585); test: HIV-1 RT inhibition assay (Roche kit, ELISA); assay type: biochemical
T1 construct: The RT is a heterodimer consisting of two subunits, p66 (560 residues) and p51 (440 residues); purchased Roche
Procedure: An HIV-1 reverse transcriptase (RT) assay kit produced by Roche was used for the RT inhibition assay. All the reagents for performing the RT reaction came from the kit, and the ELSIA procedures for RT inhibition assay were conducted following the description in the kit protocol [38]. […] Then used, a washing buffer was used to remove the unbound dNTPs, and an anti-DIG-POD working solution was added. […] The unbound anti-DIG-PODs were removed, and the peroxidesubstrate (ABST) solution was added to the MTPs. A colored reaction proceeds during the cleavage of the substrate catalyzed by POD. […] The percentage inhibitory activity of RT inhibitors was calculated by the formula given below: % Inhibition = [O.D. value with RT but without inhibitors − O.D. value with RT and inhibitors]/[O.D. value with RT and inhibitors − O.D. value without RT and inhibitors].

[9] = Human immunodeficiency virus 1, MT4, MT-4 cells, WT HIV-1 IIIB, MTT, read-out: EC50 IIIB
[10] = Human immunodeficiency virus 2, MT4, read-out: EC50 ROD
[11] = Human immunodeficiency virus 1, IIIB, MT4, read-out: EC50 IIIB, MT-4 cells, WT HIV-1 IIIB, MTT

Row | Structure (SMILES) | EC50 [1] [nM] | CC50 at 5 days [2] [nM] | EC50 [3] [nM] | EC50 [4] [nM] | EC50 [5] [nM] | EC50 [6] [nM] | EC50 [7] [nM] | EC50 [8] [nM] | EC50 (WT HIV-1 strain (IIIB); [9]) [nM] | EC50 (HIV-2 strain (ROD); Human immunodeficiency virus 2, MT4, MT-4 cells, HIV-2 ROD, MTT, read-out: EC50 ROD) [nM] | SI (IIIB) (WT HIV-1 strain (IIIB); selectivity index, CC50/EC50 (IIIB)) | Resistance Folds K103N [1] | IC50 (HIV-1 WT RT) [nM] | EC50 (HIV-2 strain (ROD); [10]) [nM] | EC50 (WT HIV-1 strain (IIIB); [11]) [nM]
1 | O=C1Nc2ccc(Cl)cc2[C@@](C#CC2CC2)(C(F)(F)F)O1 [EFV, efavirenz, reference compound] | 95.1 ± 9.1 | > 6340 | 4.4 ± 0.3 | 184 ± 22 | 35 ± 4.7 | 5.5 ± 0.5 | 240 ± 30.4 | 201 ± 17.3 | 2.4 ± 0.3 | – | – | – | – | – | –
2 | Cc1cn([C@H]2C[C@H](N=[N+]=[N-])[C@@H](CO)O2)c(=O)[nH]c1=O [AZT, Zidovudine, reference compound] | 22.8 ± 1.1 | > 7480 | 30.1 ± 3 | 25.1 ± 1.8 | 10 ± 1.2 | 25.1 ± 3 | 19.4 ± 2.9 | 14.8 ± 1.1 | 27.3 ± 3.5 | 23.3 ± 2.1 | >274.0 | – | – | – | –
3 | Cc1cc(COc2cccc(C#N)c2)cc(C)c1Oc1ccnc(Nc2ccc(C#N)cc2)n1 [TF3, 3-((4-((2-((4-cyanophenyl)amino)pyrimidin-4-yl)oxy)-3,5-dimethylbenzyl)oxy) benzonitrile] | 48.4 ± 7.5 | 5520 ± 297 | 87.7 ± 8.5 | 1540 ± 102 | 116 ± 5.8 | 245 ± 39.6 | 895 ± 90.2 | 755 ± 156 | – | – | – | 1.92 | 60 | > 5520 | 24.5 ± 4.1
4 | COc1ccccc1OCc1cc(C)c(Oc2ccnc(Nc3ccc(C#N)cc3)n2)c(C)c1 [TF7, 4-((4-(4-((2-methoxyphenoxy)methyl)-2,6-dimethylphenoxy)pyrimidin-2-yl)amino)benzonitrile] | 164 ± 5.5 | 8150 ± 548 | 181 ± 10.7 | > 8150 | 452 ± 70.5 | 791 ± 62.9 | > 8150 | 1220 ± 179 | – | – | – | 6.31 | 73 ± 3 | > 8150 | 25.5 ± 8.4
5 | Cc1cc(COc2ccc(N)cc2)cc(C)c1Oc1ccnc(Nc2ccc(C#N)cc2)n1 [TF17, 4-((4-(4-((4-Aminophenoxy)methyl)-2,6-dimethylphenoxy)pyrimidin-2-yl)amino) benzonitrile] | 65.3 ± 7.6 | 5490 ± 328 | 152 ± 10.3 | – | 226 ± 28.9 | 552 ± 62.5 | 905 ± 147 | 747 ± 72.2 | – | – | – | 1.97 | 57 ± 3 | > 5490 | 32.5 ± 1.7
6 | Cc1cc(COc2ccc([N+](=O)[O-])cc2)cc(C)c1Oc1ccnc(Nc2ccc(C#N)cc2)n1 [TF15, 4-((4-(2,6-Dimethyl-4-((4-nitrophenoxy)methyl)phenoxy)pyrimidin-2-yl)amino) benzonitrile] | 46.3 ± 9.7 | 215000 | 50 ± 4.4 | 1800 ± 68.5 | 105 ± 15.2 | 196 ± 25.4 | 1080 ± 99.4 | 1660 ± 448 | – | – | – | 2.00 | 63 ± 1 | > 215000 | 23.1 ± 3.1
7 | Cc1ccnc2c1NC(=O)c1cccnc1N2C1CC1 [NVP, nevirapine, reference compound] | 7500 ± 867 | > 15000 | 149 ± 12 | > 15000 | 1860 ± 365 | 10100 | ≥ 13800 | > 15000 | 123 ± 7.3 | – | – | – | – | – | –
8 | COc1ccc(OCc2cc(C)c(Oc3ccnc(Nc4ccc(C#N)cc4)n3)c(C)c2)cc1 [TF5, 4-((4-(4-((4-methoxyphenoxy)methyl)-2,6-dimethylphenoxy)pyrimidin-2-yl)amino)benzonitrile] | 44.5 ± 4.9 | 254000 | 65.3 ± 10 | > 254000 | 126 ± 12.6 | 268 ± 28.9 | 964 ± 98.1 | 1410 ± 570 | – | – | – | 2.00 | 54 ± 4 | > 254000 | 21.7 ± 3.6
